Assay results: US20150202181A1, “Method of and compounds for the reduction of alcoholic hangover” (priority 2014, published 2015)
“Also recorded” adds a separate entry of the source.

Tests used:
humans = conditions: cited from earlier work
[1] = chronic dosing for two years; cited from earlier work
[2] = test system: acetaldehyde toxicity in rodents; conditions: cited from earlier work
[3] = test system: alcoholic hangover symptoms; assay: Open-label and dose-finding studies in humans drinking alcoholic beverages
aldehyde dehydrogenase = conditions: humans; cited from earlier work
rodents = conditions: cited from earlier work
[4] = NAC compared with ALA; cited from earlier work
[5] = after oral administration; cited from earlier work

SMILES | Tolerability (humans; diabetics given 600 mg/day for four years) | No-observed-effect level [1] [mg/kg/day] | Protective effect against acetaldehyde toxicity [2] | Doses required to decrease alcohol hangover symptoms as monotherapy, compared with the combination [3] | Dose that must be ingested for any noticeable reduction of alcohol hangover symptoms ([3]; monotherapy, ingested prior to imbibing alcoholic beverages) | Effect on aldehyde dehydrogenase activity (aldehyde dehydrogenase) | LD50 (rodents) [mg/kg] | Outcome of high exposure (humans; human child, 8480 mg/kg over 72 hours) | Relative solubility (water versus fat) [4] | LD50 (in words) (rodents) | Oral absorption [5]
O=C(O)CCCC[C@@H]1CCSS1 [ALA, (R)-(+)-lipoic acid] | well-tolerated | 60 | same effect | much greater doses | at least 200 mg | increasing aldehyde dehydrogenase activity | > 2000 |  |  |  | 
CC(=O)N[C@@H](CS)C(=O)O [NAC, N-acetyl-L-cysteine] |  |  | robust protective effects | much greater doses |  |  |  | survived with minor liver dysfunction | more water soluble | very high | 
N[C@@H](CS)C(=O)O [L-cysteine] |  |  |  |  |  |  |  |  |  |  | not well-absorbed; also recorded: poorly absorbed
